From patent US20190315966A1, “COMPOUNDS FOR THE DETECTION OF SENESCENT CELLS” (THE UNIVERSITY OF MANCHESTER, priority 2016, published 2019)

Experiments:
[1] = Ethanol solubility of the stain in the histochemical method; type: physicochemical; settings: stain diluted in ethanol / 70% ethanol (v/v) and filtered
[2] = tested on: senescent cells in liver biopsies; assay: Histochemical staining of liver tissue sections with high content of lipofuscin
Method: (§1) Tissue sections were obtained from paraffin embedded, formalin fixed liver biopsies that have high content of lipofusin. Subsequently, they were immobilized on glass microscopy slides by standard procedures and processed as follows: • a. Deparaffinization for 5 min at room temperature in xylene. • b. Gradual rehydration in solutions of descending concentration of ethanol (100%, 80%, 70%, 50% v/v) and finally in TBS (Tris-buffered saline) or PBS (Phosphate-buffered saline) solution. • c. The LG46 or LG48 analogue was diluted in 70% ethanol (v/v), filtered and then applied on tissue sections for 10 min. • d. Quick wash in 50% (v/v) ethanol. • e. Transfer and wash in TBS or PBS solution. • f. Counterstain with Hematoxylin or Nuclear Fast Red, followed by mounting with glycerol and sealed with a cover slip. • g. Microscopy observation.

[3] = per Georgakopoulou et al, Aging 2013; cited from earlier work
[4] = tested on: senescent cells in irradiated human laryngeal tumors; assay: Histochemical staining of paraffin embedded, formalin fixed tissue sections, irradiated human laryngeal tumors; settings: irradiated human laryngeal tumor sections; stain in 70% ethanol, 10 min; microscopy
Method: as §1, with “fixed: (a) irradiated human laryngeal tumors and (b) mouse lung adenomas, with established presence” for “fixed liver biopsies that have high content”, “senescent cells [as described in Georgakopoulou et al, Aging (Albany N.Y.) 2013].” for “lipofusin.”, “SSB dye” for “LG46 or LG48 analogue”
(§2) Tissue sections were obtained from paraffin embedded, formalin fixed: (a) irradiated human laryngeal tumors and (b) mouse lung adenomas. Subsequently, they were immobilized on glass microscopy slides by standard procedures and processed as follows: • a. Deparaffinization for 5 min at room temperature in xylene. • b. […]

[5] = tested on: senescent cells in mouse lung adenomas; assay: Histochemical staining of paraffin embedded, formalin fixed tissue sections, mouse lung adenomas; settings: mouse lung adenoma sections; stain in 70% ethanol, 10 min; microscopy
Method: as §1, with “fixed: (a) irradiated human laryngeal tumors and (b) mouse lung adenomas, with established presence” for “fixed liver biopsies that have high content”, “senescent cells [as described in Georgakopoulou et al, Aging (Albany N.Y.) 2013].” for “lipofusin.”, “SSB dye” for “LG46 or LG48 analogue”
as §2

Saos2-p53 Tet-On cells = assay: Histochemical staining of cell spreads on cover slips; type: cell-based; settings: Saos2-p53 Tet-On cells after p53 induction; stain in ethanol, 10 min
Method: (§3) Saos2-p53 Tet-On cells were grown on cover slips and collected after p53 induction to induce senescence. Cover slips were treated as follows: • a. Fixation in ice-cold ethanol or methanol for 4 min. • b. Application of SSB Dye, diluted in ethanol and filtered, on cells for 10 min. • c. Quick wash in 50% (v/v) ethanol. • d. Transfer and wash in TBS or PBS solution. • e. Counterstain with Nuclear Fast Red, followed by mounting with glycerol and sealing with a cover slip. • f. Microscopy observation.
as §3, with “collected […]” for “collected”, “the LG9 SBB-analogue,” for “SSB Dye,”

[6] = tested on: lipofuscin rich cells in human seminal vesicle and human liver with steatohepatitis; assay: Control staining of reference tissues with high lipofuscin content (seminal vesicle, liver with steatohepatitis); settings: human seminal vesicle and liver with steatohepatitis sections
Method: as §1, with “fixed: (a) human seminal vesicle and (b) human” for “fixed”, “with steatohepatitis” for “biopsies”, “lipofusin making them ideal reference (control) tissues to test the SBB assay.” for “lipofusin.”, “SSB dye” for “LG46 or LG48 analogue”
Tissue sections were obtained from paraffin embedded, formalin fixed: (a) human seminal vesicle and (b) human liver with steatohepatitis that have high content of lipofusin making them ideal reference (control) tissues to test the performance of the LG9 compound. Subsequently, they were immobilized on glass microscopy slides by standard procedures and processed as follows: • a. Deparaffinization for 5 min at room temperature in xylene. • b. […]

[7] = tested on: senescent cells in human thymus; assay: Histochemical staining of human thymus tissue sections (cortex and medulla); settings: cortex and medulla of the human thymus
Method: as §1, with “fixed, human thymus and specifically from the cortex and medulla” for “fixed liver biopsies that have high content”, “this organ.” for “lipofusin.”, “LG9 SBB-analogue” for “LG46 or LG48 analogue”

Row | SMILES | ethanol solubility in the staining method [1] | staining of cells [2] | staining of senescent cells [4] | staining of senescent cells [5] | staining of lipofuscin rich cells [6] | further results
1 | CC1(C)Nc2cccc3c(/N=N/c4ccc(/N=N/c5cccc(O)c5)c5ccccc45)ccc(c23)N1 [LG46, 3-((E)-(4-((E)-(2,2-dimethyl-2,3-dihydro-1H-perimidin-6-yl)diazenyl)naphthalen-1-yl)diazenyl)phenol] | does not encounter the ethanol solubility problems | stained cells | – | – | – | –
2 | CC1(C)Nc2cccc3c(/N=N/c4ccc(/N=N/c5ccccc5)c5ccccc45)ccc(c23)N1 [SBB, Sudan Black B, reference compound] | – | – | clearly stained | clearly stained | stained cells | ethanol solubility of the SBB stain [3]: ethanol solubility problems; staining of senescent cells (Saos2-p53 Tet-On cells): clearly stained
3 | CC1(CCCO)Nc2cccc3c(/N=N/c4ccc(/N=N/c5ccccc5)c5ccccc45)ccc(c23)N1 (stereo not drawn) [Example 5, 3-(2-Methyl-6-((E)-(4-((E)-phenyldiazenyl)naphthalen-1-yl)diazenyl)-2,3-dihydro-1H-perimidin-2-yl)propan-1-ol] | – | – | – | – | – | melting point: 124 to 126 °C
4 | CC1(C)Nc2cccc3c(/N=N/c4ccc(/N=N/c5ccc(CCO)cc5)c5ccccc45)ccc(c23)N1 [LG48, 2-(4-((E)-(4-((E)-(2,2-dimethyl-2,3-dihydro-1H-perimidin-6-yl)diazenyl)naphthalen-1-yl)diazenyl)phenyl)ethanol] | does not encounter the ethanol solubility problems | stained cells | – | – | – | –
5 | CC1(CO)Nc2cccc3c(/N=N/c4ccc(/N=N/c5ccccc5)c5ccccc45)ccc(c23)N1 (stereo not drawn) [LG9, (2-methyl-6-((E)-(4-((E)-phenyldiazenyl)naphthalen-1-yl)diazenyl)-2,3-dihydro-1H-perimidin-2-yl)methanol] | does not encounter the ethanol solubility problems | – | stained senescent cells | stained senescent cells | stained cells | staining of senescent cells [7]: stained senescent cells
